Laboratory results taken from patent US11040981B2, “Pyrrolotriazine compounds and methods of inhibiting TAM kinases” (Syros Pharmaceuticals, Inc., priority 2017, dated 2021).

Key:
FLT3 = molecular target: T1, FLT3 (Homo sapiens, UniProt P36888); experiment: TR-FRET kinase activity assay, FLT3; assay type: biochemical; conditions: ATP at Km, 60 minutes
T1 sequence (P36888 27-993): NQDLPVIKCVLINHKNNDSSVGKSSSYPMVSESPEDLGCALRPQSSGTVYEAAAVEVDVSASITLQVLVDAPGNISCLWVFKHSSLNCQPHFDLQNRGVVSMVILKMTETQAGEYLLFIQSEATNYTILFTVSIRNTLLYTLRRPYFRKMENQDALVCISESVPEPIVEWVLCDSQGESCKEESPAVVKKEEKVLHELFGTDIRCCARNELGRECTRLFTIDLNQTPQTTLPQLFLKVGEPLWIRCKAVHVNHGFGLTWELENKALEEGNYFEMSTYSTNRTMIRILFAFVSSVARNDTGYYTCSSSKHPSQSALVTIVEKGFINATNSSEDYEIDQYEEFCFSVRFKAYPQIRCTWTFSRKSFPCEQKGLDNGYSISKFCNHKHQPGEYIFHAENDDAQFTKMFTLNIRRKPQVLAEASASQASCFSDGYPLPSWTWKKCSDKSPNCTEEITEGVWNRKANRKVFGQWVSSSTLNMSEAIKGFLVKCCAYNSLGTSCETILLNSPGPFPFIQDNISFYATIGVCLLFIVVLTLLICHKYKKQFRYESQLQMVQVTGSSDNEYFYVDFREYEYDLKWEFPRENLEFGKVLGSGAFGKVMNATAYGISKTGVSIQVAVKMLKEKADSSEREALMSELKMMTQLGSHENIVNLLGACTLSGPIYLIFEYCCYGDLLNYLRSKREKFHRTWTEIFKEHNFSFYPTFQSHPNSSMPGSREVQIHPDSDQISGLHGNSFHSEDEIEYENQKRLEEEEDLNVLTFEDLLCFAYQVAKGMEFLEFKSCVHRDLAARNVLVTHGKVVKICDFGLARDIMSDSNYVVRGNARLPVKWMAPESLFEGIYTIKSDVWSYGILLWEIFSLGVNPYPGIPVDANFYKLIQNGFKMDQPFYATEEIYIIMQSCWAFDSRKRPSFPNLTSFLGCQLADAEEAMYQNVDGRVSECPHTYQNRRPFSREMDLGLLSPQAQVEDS
Method in brief: (§1)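 IC50 reflects the drop in TR-FRET between Eu anti-phosphotyrosine antibody and labelled peptide after a 60-minute room-temperature reaction. Buffer was 50 mM HEPES pH 7.5 with 10 mM MgCl2, 1 mM EGTA, 0.01% Brij 35 and 1 mM DTT, with ATP at Km per enzyme and EDTA quench.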

AXL = molecular target: T2, AXL (Homo sapiens, UniProt P30530); experiment: TR-FRET kinase activity assay, AXL; assay type: biochemical; conditions: ATP at Km, 60 minutes
T2 sequence (P30530 26-894): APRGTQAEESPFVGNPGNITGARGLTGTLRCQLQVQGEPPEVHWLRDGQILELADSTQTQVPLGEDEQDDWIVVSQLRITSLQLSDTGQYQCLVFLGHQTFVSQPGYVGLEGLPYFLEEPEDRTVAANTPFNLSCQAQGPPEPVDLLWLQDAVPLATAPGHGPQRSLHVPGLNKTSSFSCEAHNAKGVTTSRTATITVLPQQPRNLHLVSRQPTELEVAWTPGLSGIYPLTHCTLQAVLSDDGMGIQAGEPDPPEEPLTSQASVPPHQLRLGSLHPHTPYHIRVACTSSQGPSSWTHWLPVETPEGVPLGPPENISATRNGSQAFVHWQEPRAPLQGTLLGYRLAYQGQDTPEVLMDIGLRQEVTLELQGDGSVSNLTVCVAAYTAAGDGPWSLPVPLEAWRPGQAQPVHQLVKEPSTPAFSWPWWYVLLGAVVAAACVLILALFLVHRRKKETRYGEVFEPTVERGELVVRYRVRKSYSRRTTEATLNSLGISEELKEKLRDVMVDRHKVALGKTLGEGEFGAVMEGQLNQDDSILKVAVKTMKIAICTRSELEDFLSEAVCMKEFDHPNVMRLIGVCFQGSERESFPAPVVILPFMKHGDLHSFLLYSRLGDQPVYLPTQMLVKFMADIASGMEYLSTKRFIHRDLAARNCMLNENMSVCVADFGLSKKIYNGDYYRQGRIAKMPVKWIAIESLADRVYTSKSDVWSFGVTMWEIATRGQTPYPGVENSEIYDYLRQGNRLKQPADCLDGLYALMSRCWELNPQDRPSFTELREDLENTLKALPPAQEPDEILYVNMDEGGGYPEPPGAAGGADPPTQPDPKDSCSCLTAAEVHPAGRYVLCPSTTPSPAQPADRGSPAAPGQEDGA
Method in brief: as §1

Structure (SMILES) | IC50 (FLT3) | IC50 (AXL)
COC[C@H](C)Nc1ncc2c(-c3ccnc(OC(C)C)c3)cc([C@H]3CC[C@H](O)CC3)n2n1 [Compound 343] | 1000 to 10000 nM | ≤ 100 nM
COCCOc1cc(-c2cc([C@H]3CC[C@H](O)CC3)n3nc(N[C@@H](C)COC)ncc23)ccn1 [Compound 345] | 1000 to 10000 nM | ≤ 100 nM
COC[C@H](C)Nc1ncc2c(-c3cnn(Cc4noc(C)n4)c3)cc([C@H]3CC[C@H](O)CC3)n2n1 [Compound 285] | 100 to 1000 nM | ≤ 100 nM
C[C@@H](CC(F)(F)F)Nc1ncc2c(-c3cncc(C(=O)N4CCOCC4)c3)cc([C@H]3CC[C@H](O)CC3)n2n1 [Compound 311] | 100 to 1000 nM | ≤ 100 nM
COC[C@H](C)Nc1ncc2c(-c3cnn(C(C)(C)C(=O)N4CCC4)c3)cc([C@H]3CC[C@H](O)CC3)n2n1 [Compound 283] | 1000 to 10000 nM | ≤ 100 nM
COC[C@H](C)Nc1ncc2c(-c3cnn(Cc4cn[nH]c4)c3)cc([C@H]3CC[C@H](O)CC3)n2n1 [Compound 332] | 100 to 1000 nM | ≤ 100 nM
CNS(=O)(=O)c1cncc(-c2cc([C@H]3CC[C@H](O)CC3)n3nc(N[C@@H](C)CC(F)(F)F)ncc23)c1 [Compound 278] | 100 to 1000 nM | ≤ 100 nM
COC[C@H](C)Nc1ncc2c(-c3cnn(C(C)(C)C(=O)N4C[C@H](C)O[C@@H](C)C4)c3)cc([C@H]3CC[C@H](O)CC3)n2n1 [Compound 328] | 1000 to 10000 nM | ≤ 100 nM
